The values below come from patent US8188064B2, “Vitamin D analogs for obesity prevention and treatment” (Wisconsin Alumni Research Foundation, priority 2003, dated 2012).

Series [1] can be described thus: Bone calcium mobilization (serum calcium on low calcium diet). It is filed as in vivo, rat. The note with it: result in words; vitamin D deficient rat model, compared to 1α,25(OH)2D3. The procedure: (§1) Male, weanling Sprague-Dawley rats were placed on Diet 11 (0.47% Ca) diet+AEK for one week followed by Diet 11 (0.02% Ca)+AEK for 3 weeks. The rats were then switched to a diet containing 0.47% Ca for one week followed by two weeks on a diet containing 0.02% Ca. Dose administration began during the last week on 0.02% calcium diet. Four consecutive ip doses were given approximately 24 hours apart. Twenty-four hours after the last dose, blood was collected from the severed neck and the concentration of serum calcium determined as a measure of bone calcium mobilization. The first 10 cm of the intestine was also collected for intestinal calcium transport analysis using the everted gut sac method.

Series [2] has as its system 24-hydroxylase (24Ohase) gene promoter in ROS 17/2.8 (bone) cells. Put plainly: In vitro transcription assay (luciferase reporter). It is filed as cell-based. Conditions: result in words. Here is the method:
Transcription activity was measured in ROS 17/2.8 (bone) cells that were stably transfected with a 24-hydroxylase (24Ohase) gene promoter upstream of a luciferase reporter gene (Arbour et al., 1998). Cells were given a range of doses. Sixteen hours after dosing the cells were harvested and luciferase activities were measured using a luminometer. RLU=relative luciferase units.
For orientation: In a reporter assay the amount or activity of a reporter protein is the signal.

In another series the test system is SCD-1 mRNA. Put plainly: Inhibition of SCD-1 mRNA induction in 3T3-L1 cells (RT-PCR). It is filed as cell-based, murine. The note with it: result in words, MDI-treated 3T3-L1 cells. From the text:
Chomczynski, P. et al., Anal. […] NO: 4)).

Series [3] addresses T1, full-length recombinant rat vitamin D receptor (Rattus norvegicus, UniProt P13053).
T1 construct: Full-length recombinant rat receptor was expressed in E. coli; histidine tag (C); made in house; host or cells: E. coli BL21(DE3) Codon Plus RIL
T1 sequence (P13053 1-423): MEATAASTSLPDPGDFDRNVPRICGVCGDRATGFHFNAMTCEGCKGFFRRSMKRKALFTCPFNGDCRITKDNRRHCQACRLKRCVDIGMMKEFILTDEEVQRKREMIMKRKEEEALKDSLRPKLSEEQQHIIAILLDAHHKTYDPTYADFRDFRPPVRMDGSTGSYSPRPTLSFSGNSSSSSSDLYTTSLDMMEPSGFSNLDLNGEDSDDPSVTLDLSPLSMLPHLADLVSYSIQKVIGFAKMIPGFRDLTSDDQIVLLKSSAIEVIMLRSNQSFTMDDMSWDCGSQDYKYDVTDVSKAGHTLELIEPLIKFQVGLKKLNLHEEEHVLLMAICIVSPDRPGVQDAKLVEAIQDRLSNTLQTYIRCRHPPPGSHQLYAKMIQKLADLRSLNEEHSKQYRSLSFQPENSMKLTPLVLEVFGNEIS
In words: Vitamin D receptor binding (competition with 3H-1,25(OH)2D3). Conditions: result in words, competition for tritiated hormone binding. Here is the method:
Full-length recombinant rat receptor was expressed in E. coli BL21(DE3) Codon Plus RIL cells and purified to homogeneity using two different column chromatography systems. The first system was a nickel affinity resin that utilizes the C-terminal histidine tag on this protein. The protein that was eluted from this resin was further purified using ion exchange chromatography (S-Sepharose Fast Flow). Aliquots of the purified protein were quick frozen in liquid nitrogen and stored at −80° C. until use. For use in binding assays, the protein was diluted in TEDK50 (50 mM Tris, 1.5 mM EDTA, pH 7.4, 5 mM DTT, 150 mM KCl) with 0.1% Chaps detergent. The receptor protein and ligand concentration was optimized such that no more than 20% of the added radiolabeled ligand was bound to the receptor.
Unlabeled ligands were dissolved in ethanol and the concentrations determined using UV spectrophotometry (1,25(OH)2D3: molar extinction coefficient=18,200 and λmax=265 nm; Analogs: molar extinction coefficient=42,000 and λmax=252 nm). Radiolabeled ligand (^3H-1,25(OH)2D3, ˜159 Ci/mmole) was added in ethanol at a final concentration of 1 nM.
Radiolabeled and unlabeled ligands were added to 100 mcl of the diluted protein at a final ethanol concentration of ≦10%, mixed and incubated overnight on ice to reach binding equilibrium. The following day, 100 mcl of hydroxylapatite slurry (50%) was added to each tube and mixed at 10-minute intervals for 30 minutes. The hydroxylapaptite was collected by centrifugation and then washed three times with Tris-EDTA buffer (50 mM Tris, 1.5 mM EDTA, pH 7.4) containing 0.5% Titron X-100. After the final wash, the pellets were transferred to scintillation vials containing 4 ml of Biosafe II scintillation cocktail, mixed and placed in a scintillation counter. Total binding was determined from the tubes containing only radiolabeled ligand.

The subject of the next series is 3T3-L1 cells. In words: Inhibition of 3T3-L1 differentiation into mature adipocytes (Oil-Red-O staining). It is filed as cell-based, murine. Conditions: for inhibition of differentiation of 3T3-L1 cells into mature adipocytes (Oil-Red-O staining): result in words, MDI-treated cells, staining at day 10. Here is the method: Various 19-nor vitamin D analogs were or are tested and found to inhibit the differentiation of preadipocytes into mature adipocytes, to reduce body fat, to inhibit an increase in PPARγ, C/EBPα, and/or SCD-1 gene transcription and to be useful in treating and preventing obesity both in vivo and in vitro. The undifferentiated preadipocyte 3T3-L1 subline, a derivative of the original mouse fibroblast cell line, is one of the most accepted models for investigating the adipogenesis process and was used for the analysis. Two days after reaching confluence, 3T3-L1 cells can be induced to differentiate into adipocytes (see Mackall, J. C. et al. J. Biol. Chem., 251(20), 6462-6464 (1976)) with the addition of a cAMP phosphodiesterase inhibitor, dexamethasone (a glucocortoid), and insulin. […] The induction of PPARγ and C/EBPα is required for adipocyte differentiation. […] SCD-1 is an enzyme found in adipocytes that converts saturated fatty acids (C16 and C18) to their monounsaturated forms (C16:1 and C18:1). The deposition of triglyceride can also be detected as early as 3 days, and by the 7th to 14th days post-confluence, greater than 80% of the cells in the monolayer stain positively with Oil-red-O.

The subject of series [4] is Human promyelocytic leukemia (HL60) cells. In words: HL-60 differentiation (nitro blue tetrazolium reduction). It is filed as cell-based. Conditions: for differentiation of HL-60 cells, compared to 1α,25(OH)2D3: result in words; for cells induced to differentiate in the NBT assay: concentration 1×10^−7 M. The procedure: The study drugs were dissolved in ethanol and the concentrations determined using UV spectrophotometry. Serial dilutions were prepared so that a range of drug concentrations could be tested without changing the final concentration of ethanol (≦0.2%) present in the cell cultures.
Human promyelocytic leukemia (HL60) cells were grown in RPMI-1640 medium containing 10% fetal bovine serum. The cells were incubated at 37° C. in the presence of 5% CO2.
HL60 cells were plated at 1.2×10^5 cells/ml. Eighteen hours after plating, cells in duplicate were treated with drug. Four days later, the cells were harvested and a nitro blue tetrazolium reduction assay was performed (Collins et al., 1979; J. Exp. Med. 149:969-974). The percentage of differentiated cells was determined by counting a total of 200 cells and recording the number that contained intracellular black-blue formazan deposits. Verification of differentiation to monocytic cells was determined by measuring phagocytic activity (data not shown).

Series [5] is described as follows: Intestinal calcium transport (everted gut sac). The note with it: result in words, vitamin D deficient rat model, compared to 1α,25(OH)2D3. It is filed as in vivo. The procedure: as §1

Structures are written as SMILES. “Also recorded” adds a separate entry of the source.

Consider `C=C1[C@H](O)CC(=C/C=C2\CCC[C@@H]3[C@@H]([C@@H](C)CCCC(C)(C)O)CC[C@@H]23)C[C@H]1O` [VD-03], for which, in series [1], the “bone calcium mobilization activity” value is “relatively low ability”. In addition, the “transcriptional activity in bone cells, compared to 1α,25(OH)2D3” value in series [2] was “higher transcriptional activity”. The “inhibition of SCD-1 mRNA induction” value in the series with SCD-1 mRNA is on record as “active”. Also, the “binding to the vitamin D receptor, compared to 1α,25(OH)2D3” value (from here on “binding … compared to 1α,25(OH)2D3”) in series [3] was “very active; also recorded: as well as the native hormone”. The “fold more active than the native hormone 1α,25-(OH)2D3 in inhibition of adipocyte differentiation” value in the series on 3T3-L1 cells (Oil-Red-O staining) was “approximately 10 fold”. The “inhibition of differentiation of 3T3-L1 cells into mature adipocytes (Oil-Red-O staining)” value in the series with 3T3-L1 cells was “active”. Moreover, the “differentiation of HL-60 cells, compared to 1α,25(OH)2D3” value (shortened to “differentiation of HL-60 cells”) in series [4] is reported as “high potency”. For the same compound, in series [5], the “intestinal calcium transport activity” value was “about as active as; also recorded: approximately the same activity”.

For the compound `CC(CCCC(C)(C)O)C1CCC2C(=CC=C3CC(O)C(=CCCO)C(O)C3)CCCC21C` (stereo not shown) [1AGR], the “bone calcium mobilization activity” value in series [1] is “significant ability to mobilize calcium from bone; also recorded: active”. Further, in series [2], the “transcriptional activity in bone cells, compared to 1α,25(OH)2D3” value is recorded as “significant transcriptional activity”. Also, in the series with SCD-1 mRNA, the “inhibition of SCD-1 mRNA induction” value is “nearly equipotent; also recorded: active”. The “binding … compared to 1α,25(OH)2D3” value in series [3] was “very active”. In addition, in series [3] (listed as AGR), the “binding … compared to 1α,25(OH)2D3” value is on record as “less than five times less potent”. In addition, the “inhibition of differentiation of 3T3-L1 cells into mature adipocytes (Oil-Red-O staining)” value in the series with 3T3-L1 cells is “nearly equipotent; also recorded: so much greater; also recorded: active”. Moreover, in series [4], the “cells induced to differentiate in the NBT assay” value (from here on “cells induced to differentiate”) is reported as “same degree of differentiation” and the “differentiation of HL-60 cells” value is given as “as potent as”. In series [5], the “intestinal calcium transport activity” value is given as “relatively high intestinal calcium transport activity; also recorded: active”.

Turning to `CC(CCCC(C)(C)O)C1CCC2C(=CC=C3CC(O)C(=CCCO)C(O)C3)CCCC21C` (stereo not shown) [1AGS], the “bone calcium mobilization activity” value in series [1] was “significant ability to mobilize calcium from bone; also recorded: active”. In addition, the “transcriptional activity in bone cells, compared to 1α,25(OH)2D3” value in series [2] is recorded as “significant transcriptional activity”. Also, the “inhibition of SCD-1 mRNA induction” value in the series on SCD-1 mRNA is on record as “nearly equipotent; also recorded: active”. Besides, the figures for the “binding … compared to 1α,25(OH)2D3” value in series [3] and in series [3] (listed as AGS) were “very active” and “less than five times less potent”, respectively. Besides, the “inhibition of differentiation of 3T3-L1 cells into mature adipocytes (Oil-Red-O staining)” value is reported as “nearly equipotent; also recorded: highest activity; also recorded: so much greater; also recorded: active” in the series on 3T3-L1 cells and “slightly more active” in the series with 3T3-L1 cells (listed as LAGS). Also, in series [4], the “cells induced to differentiate” value was “same degree of differentiation”. Besides, the “differentiation of HL-60 cells” value in series [4] was “as potent as”. The “intestinal calcium transport activity” value in series [5] is recorded as “relatively high intestinal calcium transport activity; also recorded: active”.

Regarding `COCOCCC=C1C(O)CC(=CC=C2CCCC3(C)C2CCC3C(C)CCCC(C)(C)O)CC1O` (stereo not shown) [F-Wit], the “bone calcium mobilization activity” value in series [1] is given as “significant ability to mobilize calcium from bone; also recorded: active”. Further, the “transcriptional activity in bone cells, compared to 1α,25(OH)2D3” value in series [2] was “significant transcriptional activity”. Also, the “inhibition of SCD-1 mRNA induction” value in the series on SCD-1 mRNA was “active”. Also, in series [3], the “binding … compared to 1α,25(OH)2D3” value was “very active; also recorded: less than five times less potent”. Further, the “inhibition of differentiation of 3T3-L1 cells into mature adipocytes (Oil-Red-O staining)” value in the series on 3T3-L1 cells is listed as “also active”. For the same compound, in series [4], the “cells induced to differentiate” value is recorded as “same degree of differentiation” and the “differentiation of HL-60 cells” value was “as potent as”. In addition, the “intestinal calcium transport activity” value in series [5] is recorded as “relatively high intestinal calcium transport activity; also recorded: active”.

Consider `C=C1[C@H](O)CC(=C/C=C2\CCC[C@]3(C)[C@@H]([C@@H](C)CCCC)CC[C@@H]23)C[C@H]1O` [(20S)OM], for which the “bone calcium mobilization activity” value in series [1] is recorded as “very little bone calcium mobilization activity”. In addition, the “transcriptional activity in bone cells, compared to 1α,25(OH)2D3” value in series [2] is on record as “about the same transcriptional activity”. The “inhibition of SCD-1 mRNA induction” value with SCD-1 mRNA was “still possess activity”; with SCD-1 mRNA (listed as OM), “increased slightly”. Besides, the “binding … compared to 1α,25(OH)2D3” value is recorded as “as or nearly effective as calcitriol” in series [3] and “bound equally well” in series [3] (listed as OM). Further, the “inhibition of differentiation of 3T3-L1 cells into mature adipocytes (Oil-Red-O staining)” value was “still possess activity” in the series on 3T3-L1 cells and “increased slightly” in the series on 3T3-L1 cells (listed as OM). Moreover, the “differentiation of HL-60 cells” value in series [4] was “almost as potent”. Moreover, the figures for the “intestinal calcium transport activity” value in series [5] (listed as (20S)-OM) and in series [5] (listed as OM) were “less activity” and “very little activity”, respectively.
